Data on ten molecules can be found in PubChem BioAssay (NCI).

Some test systems named below: HCT-116 colon; SNB-19 CNS; SNB-75 CNS; PC-3 prostate; UACC-62 melanoma; COLO 205 colon; OVCAR-4 ovarian; HCT-15 colon; IGROV1 ovarian; RPMI-8226 leukemia.
Experiment in all cases: DTP human tumour cell line panel, 48 h

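Growth conditions: 96-well plates. Treatment: test compound, 48 hours, 5 concentrations. Analysis: linear interpolation between bracketing concentrations; unreached endpoints set to highest concentration. Abbreviation: GI50, concentration required for 50% inhibition of growth. TGI marks complete inhibition of growth.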

In the case of `CC12CCc3ccccc3C1=Nc1ccccc12` (centres undefined), the TGI in the assay with HCT-116 colon, with SNB-19 CNS, in the assay on SNB-75 CNS, in the assay on PC-3 prostate, in the assay with UACC-62 melanoma and in the assay on COLO 205 colon was greater than 100 µM in each case. Moreover, the TGI with OVCAR-4 ovarian, in the assay with HCT-15 colon and in the assay with IGROV1 ovarian was greater than 100 µM in each case.
As for `COc1ccc2c(c1OC)-c1c(c3ccc([N+](=O)[O-])cc3c(=O)n1CCCN=[N+]=[N-])C2=O`, the GI50 with HCT-116 colon is 2.93 µM; with SNB-19 CNS it was 3.62 µM; in the assay on PC-3 prostate, 22 µM; with UACC-62 melanoma, 4.59 µM; with COLO 205 colon, greater than 100 µM; in the assay with OVCAR-4 ovarian, greater than 100 µM. Besides, the GI50 with RPMI-8226 leukemia was 5.18 µM; in the assay with HCT-15 colon it was greater than 100 µM; in the assay on IGROV1 ovarian, 1.02 µM. Moreover, the TGI in the assay on HCT-116 colon was 38.2 µM; in the assay on SNB-19 CNS, greater than 100 µM; in the assay on PC-3 prostate it was greater than 100 µM; in the assay with UACC-62 melanoma, greater than 100 µM; in the assay with COLO 205 colon it was greater than 100 µM; in the assay with OVCAR-4 ovarian, greater than 100 µM. The TGI in the assay with RPMI-8226 leukemia is greater than 100 µM; in the assay with HCT-15 colon it was greater than 100 µM; in the assay on IGROV1 ovarian it was 23.9 µM.
On to `COc1ccc2[nH]c(-c3cccc(N(C)C)c3)cc(=O)c2c1`, for which the GI50 with HCT-116 colon was 0.56 µM; with SNB-75 CNS it was 0.371 µM; with PC-3 prostate, 0.435 µM; in the assay with UACC-62 melanoma, 0.483 µM; in the assay with COLO 205 colon it was 0.379 µM; in the assay with RPMI-8226 leukemia, 0.443 µM. In addition, in the assay on HCT-15 colon, the GI50 is 0.374 µM. The TGI was 50.2 µM in the assay with SNB-75 CNS; greater than 100 µM in the assay on PC-3 prostate; greater than 100 µM in the assay with UACC-62 melanoma; greater than 100 µM with OVCAR-4 ovarian; 0.844 µM in the assay with RPMI-8226 leukemia; greater than 100 µM in the assay with IGROV1 ovarian.
On to `C[C@@]1(c2ncncc2F)NC(=O)c2cc(-c3cn[nH]c3)ccc21`, for which the GI50 with HCT-116 colon is 5.48 µM; in the assay on SNB-19 CNS, 31.9 µM; with SNB-75 CNS it was 4.45 µM; with PC-3 prostate it was 27.2 µM; with UACC-62 melanoma, 18.8 µM; in the assay on OVCAR-4 ovarian, 38.5 µM. For the same molecule, the GI50 with RPMI-8226 leukemia was 31 µM; with HCT-15 colon, 20.8 µM; in the assay with IGROV1 ovarian it was 21.4 µM. For the same molecule, the TGI with HCT-116 colon is greater than 100 µM; with SNB-19 CNS, greater than 100 µM; in the assay with SNB-75 CNS, 40.3 µM; with PC-3 prostate it was greater than 100 µM; in the assay on UACC-62 melanoma, 70.6 µM; with OVCAR-4 ovarian it was greater than 100 µM. Further, the TGI with RPMI-8226 leukemia was 95.2 µM; in the assay on HCT-15 colon, greater than 100 µM; with IGROV1 ovarian it was greater than 100 µM.
In the case of `c1ccc2cc(OCC3CO3)c(OCC3CO3)cc2c1` (centres undefined), the TGI in the assay with HCT-116 colon came out at 3.11 µM; in the assay on SNB-19 CNS, 17.7 µM; in the assay on SNB-75 CNS, 18.6 µM; in the assay with PC-3 prostate it was 32.1 µM; with UACC-62 melanoma it was 17.6 µM; in the assay with COLO 205 colon it was 25.3 µM. Further, the TGI in the assay on RPMI-8226 leukemia is 9.8 µM; in the assay on HCT-15 colon it was 16.6 µM; with IGROV1 ovarian, 11.1 µM.
With `C#CCOc1ccc2ncnc(Nc3ccc(NC(=O)CCl)cc3)c2c1`, the GI50 in the assay with HCT-116 colon is 3.68 µM; with SNB-19 CNS, 8.43 µM; in the assay on PC-3 prostate, 8.1 µM; in the assay on UACC-62 melanoma, 8.97 µM; with COLO 205 colon it was 13.8 µM; in the assay with OVCAR-4 ovarian it was 11.9 µM. For the same molecule, the GI50 in the assay on RPMI-8226 leukemia was 3.88 µM; in the assay on HCT-15 colon, 2.96 µM; in the assay with IGROV1 ovarian it was 3.15 µM. For the same molecule, the TGI in the assay on HCT-116 colon was determined as 14.9 µM; with SNB-19 CNS, 22.3 µM; with PC-3 prostate it was 27.6 µM; in the assay on UACC-62 melanoma it was 27.4 µM; in the assay on COLO 205 colon, 31.5 µM; in the assay on OVCAR-4 ovarian, 39.2 µM. The TGI in the assay on RPMI-8226 leukemia came to 18.1 µM; in the assay with HCT-15 colon, 19.2 µM; with IGROV1 ovarian, 10.9 µM.
Take `CC(F)(F)c1cc(F)ccc1-c1sc2cc(O)ccc2c1Oc1ccc(/C=C/C(=O)O)cc1`: the GI50 with HCT-116 colon was 8.48 µM; in the assay on SNB-19 CNS, 7.28 µM; with SNB-75 CNS it was 3.52 µM; with PC-3 prostate it was 7.7 µM; with UACC-62 melanoma it was 6.06 µM; in the assay on OVCAR-4 ovarian, 12.1 µM. The GI50 was 8.33 µM in the assay on RPMI-8226 leukemia, 4.13 µM in the assay on HCT-15 colon and 11.6 µM in the assay with IGROV1 ovarian. The TGI is 22.1 µM in the assay on HCT-116 colon; 20.2 µM with SNB-19 CNS; 19.8 µM in the assay with SNB-75 CNS; 24.7 µM with PC-3 prostate; 22.9 µM in the assay with UACC-62 melanoma; 33.2 µM in the assay with OVCAR-4 ovarian. The TGI in the assay with RPMI-8226 leukemia came to 74.8 µM; in the assay on HCT-15 colon, 18.2 µM; in the assay with IGROV1 ovarian, 29 µM.
Regarding `O=C(N=Nc1c(O)[nH]c2c(Cl)cc(Cl)cc12)c1ccncc1`, the concentration for total growth inhibition (TGI) in the assay with HCT-116 colon was 39.2 µM; in the assay with SNB-19 CNS it was greater than 100 µM; in the assay on SNB-75 CNS it was 95.2 µM; with PC-3 prostate, 40.2 µM; in the assay with UACC-62 melanoma, 33 µM; with COLO 205 colon it was greater than 100 µM. Further, the TGI in the assay on OVCAR-4 ovarian was 57.2 µM; with HCT-15 colon, greater than 100 µM; with IGROV1 ovarian, greater than 100 µM.
As for `COc1ccc(NC(=O)Nc2ccc(Nc3nc(C)cc(Nc4ccc(C)cc4)n3)cc2)cc1`, the GI50 in the assay with SNB-19 CNS was 1.06 µM; in the assay with SNB-75 CNS, 1.53 µM; with PC-3 prostate it was 1.46 µM; with UACC-62 melanoma it was 1.41 µM; in the assay on COLO 205 colon, 1.94 µM; in the assay on OVCAR-4 ovarian, 1.16 µM. In addition, the results for the GI50 in the assay with RPMI-8226 leukemia, with HCT-15 colon and in the assay on IGROV1 ovarian were 0.71 µM, 1.63 µM and 1.71 µM, respectively. Besides, the TGI is 3.45 µM in the assay with SNB-19 CNS; 3 µM in the assay on SNB-75 CNS; 2.88 µM in the assay with PC-3 prostate; 3.04 µM with UACC-62 melanoma; 3.62 µM in the assay with COLO 205 colon; 2.55 µM in the assay with OVCAR-4 ovarian. Also, the results for the TGI in the assay with RPMI-8226 leukemia, in the assay on HCT-15 colon and with IGROV1 ovarian were 1.65 µM, 3.29 µM and 3.28 µM, respectively.
Turning to `COc1cc2nc(-c3ccc(-n4cncc4-c4ccc(N)cc4)cc3)sc2c(OC)c1OC`, the GI50 with HCT-116 colon is 3.81 µM; in the assay with SNB-19 CNS it was 12.3 µM; with SNB-75 CNS, 5.94 µM; in the assay on PC-3 prostate, 3.02 µM; in the assay on UACC-62 melanoma it was 5.45 µM; in the assay on OVCAR-4 ovarian, 3.6 µM. Moreover, the GI50 with IGROV1 ovarian is 2.63 µM. For the same molecule, the TGI was greater than 100 µM in the assay with HCT-116 colon; 51.1 µM in the assay with SNB-19 CNS; 23.5 µM in the assay on SNB-75 CNS; 49.2 µM in the assay on PC-3 prostate; greater than 100 µM in the assay with UACC-62 melanoma; 32.1 µM in the assay on OVCAR-4 ovarian. In addition, the TGI in the assay with IGROV1 ovarian is 20.2 µM.
